Results taken from patent US7834008B2, “Cyclopropyl derivatives as NK3 receptor antagonists” (H. Lundbeck A/S, priority 2003, dated 2010).

Tested on: not given
Assay: not given
Conditions: in particular positive symptoms; cited from earlier work

Molecule	effect against schizophrenia
CC(=O)N(C)C1(c2ccccc2)CCN(CCC[C@]2(c3ccc(Cl)c(Cl)c3)CCCN(C(=O)c3ccccc3)C2)CC1 [SR142801]	has effect against schizophrenia

Biological target: T1, human NK3 receptor (Homo sapiens, UniProt P29371)
T1 construct: expressed in transfected cells
T1 sequence (P29371 1-465): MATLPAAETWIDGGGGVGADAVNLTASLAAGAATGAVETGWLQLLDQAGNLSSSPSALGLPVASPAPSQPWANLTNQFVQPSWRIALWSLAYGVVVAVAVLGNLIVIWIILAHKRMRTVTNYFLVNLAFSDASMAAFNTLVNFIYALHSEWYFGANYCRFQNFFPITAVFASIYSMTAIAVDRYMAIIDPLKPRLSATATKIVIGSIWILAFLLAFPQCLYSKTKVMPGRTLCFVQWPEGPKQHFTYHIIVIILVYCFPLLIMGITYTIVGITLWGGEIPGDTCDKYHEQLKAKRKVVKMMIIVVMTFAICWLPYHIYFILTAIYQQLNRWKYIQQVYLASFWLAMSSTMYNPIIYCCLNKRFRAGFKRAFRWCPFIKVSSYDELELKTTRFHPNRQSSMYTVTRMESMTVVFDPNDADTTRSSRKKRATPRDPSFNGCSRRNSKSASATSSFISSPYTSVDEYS
Assay: Fluorometric Imaging Plate Reader (FLIPR) calcium assay, antagonist test against NKB
Type: cell-based
Conditions: BHK cells stably expressing the human NK3 receptor, EC85 of NKB (app. 1 nM)
Procedure: The Fluorometric Imaging Plate Reader (FLIPR) assay: The compounds were analysed for efficacy profile in FLIPR assays similar to assays described in Jerman, J C et al: Eur J Pharmacol. 2001, 414, p 23-30. BHK cells (cf. Example 20) stably expressing the human NK3 receptor were seeded in 100 μl media in black walled clear-base 96-wells plates (Costar) aiming at a confluency of 95-100% at the day of assay. The assay was performed according to the calcium assay kit (Molecular Devices). Briefly, the calcium assay reagent was dissolved in Hanks BSS (HBSS) buffer, pH 7.4 containing 20 mM Hepes and 2.5 mM probinicid. An equal volume (100 μl) of the calcium assay reagent solution was added to the wells and the plates were incubated for 60 min at 37° C. The plates were subsequently placed in the FLIPR for examination of fluorescence.
Compounds were diluted in HBSS buffer containing 20 mM Hepes prior to test. For test of agonist activity 50 μl of compound was added to the wells and the plates were analysed for 3 minutes in the FLIPR. For test of antagonist activity, 25 μl of compound was added to the wells and the plate was analysed for a 5 minute period. Subsequently, the wells were added 25 μl of an EC85 (final concentration) of NKB (app. 1 nM) previously determined from a dose-response curve with NKB. The plates were subsequently read for 3 minutes before termination. As controls, selected wells on all plates were added only 100 nM of the NK3 receptor agonist NKB or 2 μM of the calcium ionophor ionomycin. The maximal increase in fluorescence over background following each ligand addition was determined and analysed.

Molecule	inhibition of the NKB-mediated activation of the NK3 receptor
CC(=O)N1CC2(CCN(C[C@@H]3C[C@@]3(C(=O)N(C)Cc3ccc(F)cc3)c3ccccc3)CC2)c2ccccc21 [Compound 23a]	inhibited the NKB-mediated activation of the NK3 receptor
CC(=O)N1CC2(CCN(C[C@@H]3C[C@@]3(C(=O)N(C)Cc3ccc(F)cc3)c3ccccc3)CC2)c2cc(F)ccc21 [Compound 25a]	inhibited the NKB-mediated activation of the NK3 receptor
CC(=O)N1CC2(CCN(C[C@@H]3C[C@@]3(C(=O)N(C)Cc3ccc(F)cc3)c3ccc(F)cc3)CC2)c2cc(F)ccc21 [Compound 32a]	inhibited the NKB-mediated activation of the NK3 receptor
CN(Cc1ccc(F)cc1)C(=O)[C@@]1(c2ccccc2)C[C@H]1CN1CCC(C(=O)N2CCCCC2)(c2ccccc2)CC1 [Compound 42a, (1S,2R)-1-Phenyl-2-[4-phenyl-4-(piperidine-1-carbonyl)-piperidin-1-ylmethyl]-cyclopropanecarboxylic acid (4-fluoro-benzyl)-methyl-amide]	inhibited the NKB-mediated activation of the NK3 receptor
CC(=O)NC1(c2ccccc2)CCN(C[C@@H]2C[C@@]2(C(=O)N(C)Cc2ccc(F)cc2)c2ccc(Cl)cc2)CC1 [Compound 44a, (1S,2R)-2-(4-Acetylamino-4-phenyl-piperidin-1-ylmethyl)-1-(4-chloro-phenyl)-cyclopropanecarboxylic acid (4-fluoro-benzyl)-methyl-amide]	inhibited the NKB-mediated activation of the NK3 receptor
CC(=O)NC1(c2ccccc2)CCN(C[C@@H]2C[C@@]2(C(=O)N(C)Cc2ccccc2Cl)c2ccc(Cl)cc2)CC1 [Compound 45a, (1S,2R)-2-(4-Acetylamino-4-phenyl-piperidin-1-ylmethyl)-1-(4-chloro-phenyl)-cyclopropanecarboxylic acid (2-chloro-benzyl)-methyl-amide]	inhibited the NKB-mediated activation of the NK3 receptor
(1S,2R)-1-(3,4-Difluoro-phenyl)-2-[4-phenyl-4-(piperidine-1-carbonyl)-piperidin-1-ylmethyl]-cyclopropanecarboxylic acid-methyl-amide [Compound 33a]	inhibited the NKB-mediated activation of the NK3 receptor
